Source: US12459929B2 (Carmot Therapeutics Inc., priority 2021, dated 2025)

target: T1, human GLP-1 receptor (Homo sapiens, UniProt P43220); test: GLP-1R cAMP assay (HitHunter cAMP accumulation); assay type: cell-based; conditions: CHO cells stably overexpressing human GLP-1 receptor, 30 min, 20-point dose response in triplicate
T1 construct: expressed in transfected cells
Experimental: CAMP accumulation was measured in Chinese hamster ovary (CHO) cells stably overexpressing the human GLP-1 receptor using the HitHunter CAMP Assay for Small Molecules Kit (Eurofins). Briefly, cells were grown in Ham's F12 Nutrient Mix with 10% FBS, and lifted with Cell Dissociation Buffer, Enzyme free, PBS based (ThermoFisher). […] The anti-cAMP antibody reagent was then added to cells at a 1:2 ratio and 5 μL of mixture was seeded in 384-well small volume white assay plates, at 10,000 cells/well. Cells were then treated with 50 nL compound using an ECHO 550 acoustic dispenser (Labcyte) in a 20-point dose response format in triplicate for 30 min. Cells were then lysed, and detection reagents added according to the manufacturer's protocol. After overnight incubation, luminescence was measured using a Perkin Elmer Envision plate reader. Dose response curves were analyzed using GraphPad Prism 9.0.

T1 sequence (P43220 24-463): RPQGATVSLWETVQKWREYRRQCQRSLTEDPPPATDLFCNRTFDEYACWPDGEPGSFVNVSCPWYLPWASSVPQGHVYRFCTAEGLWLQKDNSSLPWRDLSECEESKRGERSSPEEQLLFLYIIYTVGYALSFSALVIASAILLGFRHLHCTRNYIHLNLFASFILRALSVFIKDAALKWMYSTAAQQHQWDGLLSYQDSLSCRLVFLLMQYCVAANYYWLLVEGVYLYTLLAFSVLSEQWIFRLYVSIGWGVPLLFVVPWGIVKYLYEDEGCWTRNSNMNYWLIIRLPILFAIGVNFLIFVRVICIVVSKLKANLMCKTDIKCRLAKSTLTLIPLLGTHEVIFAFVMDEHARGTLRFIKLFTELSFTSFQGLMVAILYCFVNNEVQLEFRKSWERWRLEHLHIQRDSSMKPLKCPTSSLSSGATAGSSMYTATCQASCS

Row | Structure (SMILES) | EC50
1 | N#Cc1ccc(OCc2nccc(OC3C[C@H]4CC[C@@H](C3)N4Cc3nc4ccc(C(=O)O)cc4n3C[C@@H]3CCO3)n2)c(F)c1 (single isomer, unassigned) [Compound 488] | 50 to 500 nM
2 | CCn1cncc1Cn1c(CN2CCC([C@@H](F)c3cccc(COc4ccc(Cl)cc4C#N)c3)CC2)nc2ccc(C(=O)O)cc21 (single isomer, unassigned) [Example 260] | < 50 nM
3 | CCn1cncc1Cn1c(CN2CCC([C@H](F)c3cccc(COc4ccc(Cl)cc4C#N)c3)CC2)nc2ccc(C(=O)O)cc21 (single isomer, unassigned) [Example 263] | < 50 nM
4 | O=C(O)c1ccc2nc(CN3CCC(Oc4cccc(COc5ccc(F)cc5Cl)c4)CC3)n(C[C@@H]3CCO3)c2c1 [Compound 207] | < 50 nM
5 | CN(c1ccnc(COc2ccc(Cl)cc2F)n1)C1CCN(Cc2nc3ccc(C(=O)O)cc3n2C[C@@H]2CCO2)CC1 [Compound 382, 2-{[4-({2-[(4-chloro-2-fluorophenoxy)methyl]pyrimidin-4-yl}(methyl)amino)piperidin-1-yl]methyl}-1-{[(2S)-oxetan-2-yl]methyl}-1H-1,3-benzodiazole-6-carboxylic acid] | < 50 nM
6 | O=C(O)c1ccc2nc(CN3CCC(Nc4ccnc(COc5ccc(Cl)cc5F)n4)CC3)n(C[C@@H]3CCO3)c2c1 [Example 381, (S)-2-((4-((2-((4-Chloro-2-fluorophenoxy)methyl)pyrimidin-4-yl)amino)piperidin-1-yl)methyl)-1-(oxetan-2-ylmethyl)-1H-benzo[d]imidazole-6-carboxylic acid] | < 50 nM

system: cynomolgus monkeys (Macaca fascicularis); test: Intravenous glucose tolerance test (IVGTT) in cynomolgus monkeys; assay type: in vivo; conditions: fasted, test article 6 mg/mL IV bolus 1-6 min before IV glucose 0.5 g/kg, plasma insulin 0-60 min, FIG. 1
Experimental: Intravenous Glucose Tolerance Test (IVGTT) in Cynomolgus Monkeys
Aged ([…]) cynomolgus monkeys (Macaca fascicularis; N=4-5/test article) were fasted overnight and anesthetized with ketamine prior to the intravenous glucose tolerance test (IVGTT). The test articles were formulated at 6 mg/mL in vehicle (5% polyethylene glycol 400: 95% (12% (w/v) sulfobutylether-β-cyclodextrin in deionized water) (v/v)]) and administered by intravenous bolus into a peripheral vein 1-6 minutes prior to the IVGTT. The IVGTT was initiated by administration of an IV bolus of glucose (0.5 g/kg as a 50% glucose solution). Blood samples were collected from a peripheral vein 0, 1, 3, 5, 10, 20, 40 and 60 minutes upon completion of the IV bolus glucose injection. The blood samples were collected directly into potassium ethylene diamine tetra-acetic acid tubes and plasma separated by centrifugation at 2,500 g for 10 minutes within 30 minutes of collection. The plasma from all time points was analyzed for insulin concentrations (μU/mL) using a Cobas e411 Immunology analyzer. Insulin area-under-the-curve (AUC) was calculated using GraphPad Prism software (v 9).

Row | Structure (SMILES) | insulin secretion / insulin AUC
7 | CCn1cncc1Cn1c(CN2CCC(Oc3ccnc(COc4ccc(Cl)cc4C#N)c3)CC2)nc2ccc(C(=O)O)cc21 [Compound 171, 2-{[4-({2-[(4-chloro-2-cyanophenoxy)methyl]pyridin-4-yl}oxy)piperidin-1-yl]methyl}-1-[(1-ethyl-1H-imidazol-5-yl)methyl]-1H-1,3-benzodiazole-6-carboxylic acid] | an increase in insulin secretion was observed
8 | O=C(O)c1ccc2nc(CN3CCC(Oc4ccnc(COc5ccc(F)cc5Cl)n4)CC3)n(C[C@@H]3CCO3)c2c1 [Compound 326] | an increase in insulin secretion was observed
9 | O=C(O)c1ccc2nc(CN3CCC(Oc4ccnc(COc5ccc(C(F)(F)F)cc5F)n4)CC3)n(C[C@@H]3CCO3)c2c1 [Compound 338] | an increase in insulin secretion was observed
10 | CCn1cncc1Cn1c(CN2CCC(Oc3ccnc(COc4ccc(Cl)cc4Cl)c3)CC2)nc2ccc(C(=O)O)cc21 [Example 145, 2-((4-((2-((2,4-Dichlorophenoxy)methyl)pyridin-4-yl)oxy)piperidin-1-yl)methyl)-1-((1-ethyl-1H-imidazol-5-yl)methyl)-1H-benzo[d]imidazole-6-carboxylic acid] | an increase in insulin secretion was observed
11 | C[C@H]1C[C@@H](Oc2ccnc(COc3ccc(C#N)cc3F)n2)CCN1Cc1nc2ccc(C(=O)O)cc2n1C[C@@H]1CCO1 [Example 313, 2-(((2S,4S)-4-((2-((4-Cyano-2-fluorophenoxy)methyl)pyrimidin-4-yl)oxy)-2-methylpiperidin-1-yl)methyl)-1-(((S)-oxetan-2-yl)methyl)-1H-benzo[d]imidazole-6-carboxylic acid] | an increase in insulin secretion was observed
12 | C[C@H]1C[C@@H](Oc2ccnc(COc3ccc(F)cc3C#N)n2)CCN1Cc1nc2ccc(C(=O)O)cc2n1C[C@@H]1CCO1 [Example 355, 2-(((2S,4S)-4-((2-((2-cyano-4-fluorophenoxy)methyl)pyrimidin-4-yl)oxy)-2-methylpiperidin-1-yl)methyl)-1-(((S)-oxetan-2-yl)methyl)-1H-benzo[d]imidazole-6-carboxylic acid] | an increase in insulin secretion was observed
